From patent US6696076B2, “Immune response modifier compounds for treatment of TH2 mediated and related diseases” (3M Innovative Properties Company, priority 1996, dated 2004)

What was measured:
[1] = tested on: ovalbumin-induced eosinophilia in the lung; test: Ovalbumin-induced lung eosinophilia in the guinea pig (EPO assay); type: in vivo; conditions: for maximum inhibition of ovalbumin-induced eosinophilia: maximum over doses and routes tested
[2] = tested on: sephadex-induced eosinophilia in the lung; test: Sephadex-induced lung eosinophilia in rats (EPO assay); type: in vivo; conditions: rat; for dose capable of inhibiting sephadex-induced eosinophilia in the lung: 60 minutes prior to challenge; for maximum inhibition of sephadex-induced eosinophilia: maximum over doses and routes tested
[3] = tested on: IL-4; test: Antigen-induced IL-4 in BAL after aerosol OVA challenge (ELISA); type: in vivo, mouse; conditions: 1 mg/kg, 15 minutes prior to antigen challenge, mice
Protocol: (§1) Concentrations of IL-4 were reduced in the BAL of these mice by 43% when compared to animals receiving antigen alone. […] Fourteen days after boosting animals were dosed by nebulization for 30 minutes using a 1% OVA solution. This was repeated on days 17 and 20. Twenty-four hours after the final nebulized dose animals were sacrificed and bronchoalveolar lavage (BAL) was performed using 1.0 ml of PBS containing 1% fetal bovine serum. BAL was stored at −70° C. before analyzed. Lungs were then removed and placed in 0.5% cetrimide, 0.05 M KH2PO4 for homogenization of 4×30 seconds with 30 second cooling intervals between on ice. Centrifugation was then done at 1300 rpm (400×g) for 30 minutes at 4C. Pellet was collected and resuspended in 4 ml 0.5% cetrimide, 0.05 M KH2PO4 buffer. Samples were then frozen until sonication and the EPO assessment. This was followed by sonication for 3×15 seconds with 30 second intervals on ice. BAL were analyzed by ELISA (Endogen) for IL-5 and IL-4 concentrations with data being presented as the average from 11 animals ±SEM. Results are presented as the mean of triplicate cultures ±SEM. IL-5 concentration is in pg/ml.

[4] = tested on: IL-5 production in spleen cells from OVA-sensitized CFW mice; test: Inhibition of mouse spleen cell production of IL-5 (OVA-stimulated cultures, ELISA); type: cell-based; conditions: for IL-5 Concentration: 96 hr
[5] = tested on: antigen induced IL-5 production; test: Antigen induced IL-5 production in vivo (serum, OVA-challenged sensitized mice); set-up: species or system mouse; conditions: for −24 hr IL-5: 24 hrs before OVA challenge; for −24 hr IL-5 / 0 hr IL-5: serum 7 hrs after OVA; for 0 hr IL-5: same time as OVA challenge
Protocol: CFW male mice were sensitized with OVA as described above. 14 days after the last sensitization animals were challenged with 100 μg OVA sc. […] Serum was collected 7 hrs after OVA and analyzed for IL-5 and IFN-γ concentrations. Results are expressed as the mean cytokine concentration ±SEM.

[6] = tested on: IL-5; test: Antigen-induced IL-5 in BAL after aerosol OVA challenge (ELISA); type: in vivo, mouse; conditions: 1 mg/kg, 15 minutes prior to antigen challenge, mice
Protocol: as §1

[7] = tested on: antigen-induced eosinophilia in the lung; test: Antigen-induced lung eosinophilia after aerosol OVA challenge (EPO in lung); type: in vivo, mouse; conditions: 1 mg/kg, 15 minutes prior to antigen challenge, mice
Protocol: as §1, with “[…] To start” for “BAL were analyzed by ELISA (Endogen) for IL-5 and IL-4 concentrations with data being presented as”, “reaction, 1 ul of 30% hydrogen peroxide was added to” for “average from 11 animals ±SEM. Results are presented as”, “cuvette. The optical density reading was measured spectrophotometrically over a 4 minute time interval at 490 nm” for “mean of triplicate cultures ±SEM. IL-5 concentration is”, “a Beckman Du-64 spectrophotometer.” for “pg/ml.”

[8] = aerosol inhalation, 0.003 mg/kg
[9] = intraperitoneal administration, 0.003 mg/kg
[10] = intraperitoneal administration, 0.01 mg/kg
[11] = intraperitoneal administration, 0.03 mg/kg
[12] = intraperitoneal administration, 3.0 mg/kg
[13] = intratracheal instillation, 0.03 mg/kg
[14] = intratracheal instillation, 0.1 mg/kg
[15] = intratracheal instillation, 0.3 mg/kg
[16] = intratracheal instillation, 0.7 mg/kg
[17] = oral administration, 30.0 mg/kg
[18] = oral administration, 0.001 mg/kg
[19] = oral administration, 0.01 mg/kg

## Cc1nc2c(N)nc3ccccc3c2n1CC(C)(C)O [Cmpd 1, 4-amino-α,α,-2-trimethyl-1H-imidazo[4,5-c]quinoline-1-ethanol]
[1]; [8]
  % Inhibition: 13%
  EPO Concentration in the Lung (χ ± SE): 0.2620 ± 0.116
[1]; aerosol inhalation, 0.01 mg/kg
  % Inhibition: 44%
  EPO Concentration in the Lung (χ ± SE): 0.1806 ± 0.035
[1]; aerosol inhalation, 15 minutes prior to challenge
  dose capable of inhibiting ovalbumin-induced eosinophilia in the lung: 0.01 mg/kg
[1]; [9]
  % Inhibition: 28%
  EPO Concentration in the Lung (χ ± SE): 0.2435 ± 0.0515
[1]; [10]
  % Inhibition: 54%
  EPO Concentration in the Lung (χ ± SE): 0.1690 ± 0.053
[1]; [11]
  % Inhibition: 54%
  EPO Concentration in the Lung (χ ± SE): 0.1693 ± 0.060
[1]; [12]
  % Inhibition: 92%
  EPO Concentration in the Lung (χ ± SE): 0.0580 ± 0.018
[1]; intraperitoneal administration, 15 minutes prior to challenge
  dose capable of inhibiting ovalbumin-induced eosinophilia in the lung: 0.01 mg/kg
[1]
  maximum inhibition of ovalbumin-induced eosinophilia: 92%
[2]; [13]
  % Inhibition: 0%
  EPO Concentration in the Lung (χ ± SE): 0.7107 ± 0.129
[2]; [14]
  % Inhibition: 9%
  EPO Concentration in the Lung (χ ± SE): 0.5030 ± 0.089
[2]; [15]
  % Inhibition: 44%
  EPO Concentration in the Lung (χ ± SE): 0.3440 ± 0.201
[2]; [16]
  % Inhibition: 77%
  EPO Concentration in the Lung (χ ± SE): 0.1967 ± 0.080
[2]; intratracheal instillation
  dose capable of inhibiting sephadex-induced eosinophilia in the lung: ≥ 0.7 mg/kg
[2]
  maximum inhibition of sephadex-induced eosinophilia: 95%
[2]; oral administration, 0.1 mg/kg
  % Inhibition: 0%
  EPO Concentration in the Lung (χ ± SE): 0.4240 ± 0.138
[2]; oral administration, 0.7 mg/kg
  % Inhibition: 64%
  EPO Concentration in the Lung (χ ± SE): 0.1497 ± 0.030
[2]; oral administration, 1.0 mg/kg
  % Inhibition: 87%
  EPO Concentration in the Lung (χ ± SE): 0.0780 ± 0.039
[2]; oral administration, 5.0 mg/kg
  % Inhibition: 87%
  EPO Concentration in the Lung (χ ± SE): 0.0790 ± 0.030
[2]; [17]
  % Inhibition: 95%
  EPO Concentration in the Lung (χ ± SE): 0.0550 ± 0.013
[2]; oral administration
  dose capable of inhibiting sephadex-induced eosinophilia in the lung: ≥ 0.7 mg/kg

## CCOCc1nc2c(N)nc3ccccc3c2n1CC(C)(C)O [Cmpd 2, 4-amino-2-ethoxymethyl-α,α-dimethyl-1H-imidazo[4,5-c]quinoline-1-ethanol]
[3]
  IL-4 Concentration in BAL: 53 ± 8 pg/mL
  reduction of BAL IL-4 concentration (value in parentheses): 43%
[3]; listed as IRM Compound
  reduction of BAL IL-4 concentration (value in parentheses): 42%
[1]
  maximum inhibition of ovalbumin-induced eosinophilia: 96%
[1]; [18]
  % Inhibition: 19%
  EPO Concentration in the Lung (χ ± SE): 0.1862 ± 0.030
[1]; [19]
  % Inhibition: 49%
  EPO Concentration in the Lung (χ ± SE): 0.1181 ± 0.020
[1]; oral administration, 0.1 mg/kg
  % Inhibition: 95%
  EPO Concentration in the Lung (χ ± SE): 0.0118 ± 0.005
[1]; oral administration, 1.0 mg/kg
  % Inhibition: 96%
  EPO Concentration in the Lung (χ ± SE): 0.0084 ± 0.005
[1]; oral administration, 60 minutes prior to challenge
  dose capable of inhibiting ovalbumin-induced eosinophilia in the lung: 0.01 mg/kg
[4]; OVA 100 μg/ml + IRM Compound 0.01 μg/ml, mean ±SEM
  IL-5 Concentration: 125 ± 46 pg/mL
[4]; OVA 100 μg/ml + IRM Compound 0.1 μg/ml, mean ±SEM
  IL-5 Concentration: 25 ± 8 pg/mL
[4]; OVA 100 μg/ml + IRM Compound 1 μg/ml, mean ±SEM
  IL-5 Concentration: 22 ± 3 pg/mL
[4]; OVA 100 μg/ml + IRM Compound 10 μg/ml, mean of triplicate cultures ±SEM
  IL-5 Concentration: 12 ± 2 pg/mL
[4]; concentrations as low as 0.01 μg/ml
  inhibition of IL-5 production: greater than 60%
[4]; higher concentrations (above 0.01 μg/ml)
  inhibition of IL-5 production: 100%
[5]; doses as low as 0.01 mg/kg po
  inhibition of IL-5 production: at least 65%
[5]; free-base po 0.01 mg/kg
  −24 hr IL-5: 78 pg/mL
  0 hr IL-5: 96 pg/mL
[5]; free-base po 0.1 mg/kg
  −24 hr IL-5: 49 pg/mL
  0 hr IL-5: 62 pg/mL
[5]; free-base po 1.0 mg/kg
  −24 hr IL-5: 38 pg/mL
  0 hr IL-5: 40 pg/mL
[5]; free-base po 10.0 mg/kg
  −24 hr IL-5: 8 pg/mL
  0 hr IL-5: 29 pg/mL
[6]
  IL-5 Concentration in BAL: 13 ± 2 pg/mL
  reduction of BAL IL-5 concentration (value in parentheses): 78%
[2]
  maximum inhibition of sephadex-induced eosinophilia: 87%
[2]; [18]
  % Inhibition: 0%
  EPO Concentration in the Lung (χ ± SE): 0.6775 ± 0.140
[2]; [19]
  % Inhibition: 32%
  EPO Concentration in the Lung (χ ± SE): 0.4908 ± 0.070
[2]; oral administration, 0.1 mg/kg
  % Inhibition: 84%
  EPO Concentration in the Lung (χ ± SE): 0.2000 ± 0.060
[2]; oral administration, 1.0 mg/kg
  % Inhibition: 87%
  EPO Concentration in the Lung (χ ± SE): 0.1824 ± 0.060
[2]; oral administration
  dose capable of inhibiting sephadex-induced eosinophilia in the lung: ≥ 0.01 mg/kg
[7]
  EPO Concentration in Lung: 352 ± 30 ABS
  inhibition of antigen-induced eosinophilia in the lung (value in parentheses): 78%
